Reference: patent US20240148679A1, “METHODS AND COMPOSITIONS RELATED TO TREATMENT AND PREVENTION OF CANCER BY INHIBITION OF DGAT1 AND DGAT2” (Ohio State Innovation Foundation, priority 2019, published 2024)

Tests used:
Format in all cases: cell-based, human
liver cancer cells = assay: Liver cancer cell death with DGAT1 and DGAT2 inhibitors alone or in combination
Description: MHCC97L 6×10^4 12 well plate, treated at 24 hours with 1% FBS DMEM with DGAT1 and DGAT2 inhibitors. Picture taken on day 4.
HEPG2 6×10^4 12 well plate, treated at 24 hours with 1% FBS DMEM with DGAT1 and DGAT2 inhibitors. Picture taken on day 4.
HeG2 8×10^4 12 well plate, treated at 24 hours with 1% FBS DMEM with DGAT1 and DGAT2 inhibitors. Picture taken on day 4.
Huh7 4×10^4 12-well plate, treated at 24 hours with 1% FBS DMEM with DGAT1 and DGAT2 inhibitors. Picture taken on day 4.
Hep3B 6×10^4 12-well plate, treated at 24 hours with 1% FBS DMEM with DGAT1 and DGAT2 inhibitors. Picture taken on day 4.
Huh7 6×10^4 12-well plate, treated at 24 hours with 1% FBS DMEM with DGAT1 and DGAT2 inhibitors. Picture taken on day 4.

GBM cells (U251) = assay: Seahorse analysis of OCR and ECAR; settings: 20 μg/ml for 24 hours; for oxygen consumption rate (OCR): vs control cells
Description: (A, B) Transmission electron microscopy (TEM) analysis of the mitochondrial morphology in GBM cells (U251) treated with the DGAT1 inhibitor A-922500 (20 μg/ml) or DGAT2 inhibitor PF-06424439 (20 μg/ml) for 24 hr and shown in a or infected with shRNA-expressing lentivirus against DGAT1 for 48 hr and shown in b. Scale bar, 500 nm. Mitochondria are indicated by red arrows. Mitochondria length and loss of cristae (%) were quantified by ImageJ over 100 mitochondria in each group (mean±SEM). Statistical significance was determined by one-way ANOVA. * P<0.0001. (C, D) Representative fluorescence images of LDs (green) and mitochondria (red) in U251 cells treated with DGAT1 or DGAT2 inhibitor and shown in c or shRNA in (D) as in panels (A, B). LDs were stained with BODIPY 493/503 (green) and mitochondria were stained with MitoTracker Red. Nuclei were stained with Hoechst 33342 (blue). Scale bar, m. The percentage of cells with tubular or fragmented mitochondria was quantified by ImageJ in more than 100 cells (mean±SEM). Statistical significance was determined by one-way ANOVA. * P<0.001. (E, F) Analysis of mitochondrial activity by measuring oxygen consumption rate (OCR) in U251 cells treated with DGAT1/DGAT2 inhibitors or shRNA as in panels (A, B). Lower panels show the quantification of relative basal and maximal OCR change (details please see Methods). Data represent the mean±SD from 3 independent experiments. Basal OCR was determined as OCR before oligomycin subtract OCR after rotenone addition, and maximal OCR was determined as OCR after FCCP subtract OCR after rotenone addition. Statistical significance was determined by one-way ANOVA. * P<0.0001. (G, H) Representative fluorescence images of reactive oxygen species (ROS) production and mitochondria (green) in U251 cells treated with DGAT1/DGAT2 inhibitors or shRNA as in panels (A, B). ROS were detected with CellROX Deep Red, and mitochondria were stained with MitoTracker Green. Nuclei were stained with Hoechst 33342 (blue). Scale bar, 10 m. ROS levels were quantified by ImageJ in more than 100 cells (mean±SD). Statistical significance was determined by one-way ANOVA. * P<0.0001. (I, J) Representative fluorescence images of ROS levels (red) detected by CellROX Deep Red in U251 cells treated with the DGAT1 inhibitor or shRNA as in panels a and b in the presence or absence of N-acetyl-cysteine (NAC, 1 mM). Nuclei were stained with Hoechst 33342 (blue). Scale bar, 10 m. ROS levels were quantified by ImageJ in more than 100 cells (mean±SD) (right upper panels). Live and dead cells were counted by trypan blue staining after treatment for 3 days (mean±SD, n=3) (right bottom panels). Statistical significance was determined by one-way ANOVA. * P<0.0001. […]

BIP and CHOP = assay: Western blot of ER stress markers; settings: 20 μg/ml, 24 hours, GBM cells
Description: (A) Western blotting analysis of ER stress protein markers BIP and CHOP expression in GBM cells treated with the DGAT1 inhibitor A-922500 (20 μg/ml) for 24 hr. (B) Percentage of cell death in U251 cells treated with the ER stress pathway PERK inhibitor GSK2656157 or IRE1a inhibitor 4μ8C, alone or in combination with the DGAT1 inhibitor A-922500 (20 μg/ml) for 3 days. […] (C) Western blotting analysis of expression of ER stress protein markers BIP and CHOP in GBM cells infected with shRNA-expressing lentivirus against DGAT1 for 48 hr.
Western Blotting Cells were lysed by RIPA buffer (Cat #NC9484499; Fisher Scientific) containing protease inhibitor cocktail (Cat #11836170001; Roche) and phosphatase inhibitor (Cat #04906845001; Roche). The proteins were separated by using 12% SDS-PAGE, and transferred onto a Hybond ECL nitrocellulose membrane (Cat #RPN3032D; GE Healthcare).
After blocking for 1.5 h in 5% nonfat milk diluted by Tris-buffered saline containing 0.1% Tween 20, the membranes were incubated with various primary antibodies, followed by secondary antibodies conjugated to horseradish peroxidase.

[1] = DGAT1 inhibitor in combination with DGAT2 inhibitor

SMILES	liver cancer cell death (liver cancer cells; [1])	liver cancer cell death (liver cancer cells; each single inhibitor)	extracellular acidification rate (ECAR) (GBM cells (U251))	oxygen consumption rate (OCR) (GBM cells (U251))	protein levels of BIP and CHOP (ER stress) (BIP and CHOP)	protein levels of BIP and CHOP (ER stress) (BIP and CHOP; listed as A922500)
O=C(Nc1ccccc1)Nc1ccc(-c2ccc(C(=O)[C@@H]3CCC[C@H]3C(=O)O)cc2)cc1 [A-922500]	effective to kill liver cancer cells	no ability to induce liver cancer cell death	did not affect	markedly reduced	induces ER stress	increased
CS(=O)(=O)O.O=C([C@@H]1CCCN(c2ccc3[nH]c(C4(n5cc(Cl)cn5)CC4)nc3n2)C1)N1CCCC1 [PF-06424439]	effective to kill liver cancer cells	no ability to induce liver cancer cell death	did not affect	no reduction was observed	–	–
